# Experimental data as given in publication PMC4383205, “Structure of a low-population intermediate state in the release of an enzyme product” (eLife, 2015).
# Molecular target: T1, human lysozyme (Homo sapiens, UniProt P61626)
# T1 construct: gene LYZ; wild type, expressed in Pichia pastoris (residues 1 to 130)
# T1 sequence (P61626 19-148): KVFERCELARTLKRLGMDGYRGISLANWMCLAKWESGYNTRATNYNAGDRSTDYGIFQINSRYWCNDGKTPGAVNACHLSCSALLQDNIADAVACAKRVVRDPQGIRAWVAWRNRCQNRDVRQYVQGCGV
# Assay: SPR (Biacore single chain kinetics); also 1H-15N HSQC NMR titration and RDCs of the bound state
# Assay type: binding
compound,measurement,value
"CC(=O)N[C@H]1[C@H](O[C@H]2[C@H](O)[C@@H](NC(C)=O)C(O)O[C@@H]2CO)O[C@H](CO)[C@@H](O[C@@H]2O[C@H](CO)[C@@H](O)[C@H](O)[C@H]2NC(C)=O)[C@@H]1O (stereo partly shown) [triNAG, N,N′,N′′-Triacetylchitotriose]",Kd,~9 µM
